Measurements taken from patent US5952368A, “5-aroylpyrrol-2-ylmethylarene derivatives” (Syntex (U.S.A.) Inc., priority 1997, dated 1999).

Legend:
[1] = biological target: T1, COX I (Homo sapiens, UniProt P23219); experiment: Inhibition of COX I in vitro (radiometric assay, 14C arachidonic acid, partially purified enzyme); type: biochemical; settings: partially purified COX I, 20 micromolar arachidonic acid, 10 min preincubation, room temperature; read-out: COX I IC50
T1 construct: made in house; baculovirus-infected insect cells by own knowledge of the cited Barnett et al. 1994
T1 sequence (P23219 24-599): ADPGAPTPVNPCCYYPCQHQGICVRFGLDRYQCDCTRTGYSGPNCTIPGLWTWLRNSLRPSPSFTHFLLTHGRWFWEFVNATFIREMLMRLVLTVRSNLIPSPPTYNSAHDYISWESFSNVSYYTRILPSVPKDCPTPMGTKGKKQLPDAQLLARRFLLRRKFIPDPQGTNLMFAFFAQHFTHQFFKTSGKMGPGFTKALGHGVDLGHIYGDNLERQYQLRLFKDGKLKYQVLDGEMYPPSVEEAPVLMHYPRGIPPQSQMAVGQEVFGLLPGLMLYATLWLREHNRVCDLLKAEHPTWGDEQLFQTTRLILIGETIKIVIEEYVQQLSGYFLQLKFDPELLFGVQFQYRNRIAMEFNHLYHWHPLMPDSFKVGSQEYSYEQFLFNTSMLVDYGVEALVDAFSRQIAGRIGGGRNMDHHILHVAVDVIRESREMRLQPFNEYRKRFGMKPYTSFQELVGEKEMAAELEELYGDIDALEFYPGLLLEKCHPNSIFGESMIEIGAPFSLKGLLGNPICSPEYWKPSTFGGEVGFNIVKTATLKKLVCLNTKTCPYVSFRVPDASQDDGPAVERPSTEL
Protocol: (§1) The COX I and COX II inhibitory activity of compounds of this invention in vitro was determined using partially purified COX I and COX II enzymes, prepared as described in J. Barnett et al., Biochim. Biophys. Acta, 1209:130--139 (1994).
(§2) COX I and COX II samples were diluted with Tris-HCl buffer (50 mM Tris-HCl pH 7.9) containing 2 mM EDTA and 10% glycerol and reconstituted by incubating first with 2 mM phenol for 5 minutes and then with 1 micromolar hematin for an additional 5 minutes. 125 μl of the reconstituted COX I or COX II enzyme were preincubated for 10 minutes at room temperature in a shaking water bath with the compounds of the invention dissolved in 2-15 μl of DMSO or the carrier vehicles (control samples). The enzyme reaction was initiated by adding 25 μl of 1-[14C] arachidonic acid (80,000-100,000 cpm/tube; 20 micromolar final concentration) and the reaction was allowed to continue for an additional 45 seconds. The reaction was terminated by adding 100 μl of 2N HCl and 750 μl water. An aliquot (950 μl) of the reaction mixture was loaded onto a 1 ml C18 Sep-Pak column (J. T. Baker, Phillipsburg, N.J.) which had been previously washed with 2-3 ml methanol and equilibrated with 5-6 ml distilled water. Oxygenated products were quantitatively eluted with 3 ml of acetonitrile/water/acetic acid (50:50:0.1, v/v) and the radioactivity in the eluate determined in a scintillation counter.

[2] = biological target: T2, COX II (Homo sapiens, UniProt P35354); experiment: Inhibition of COX II in vitro (radiometric assay, 14C arachidonic acid, partially purified enzyme); type: biochemical; settings: partially purified COX II, 20 micromolar arachidonic acid, 10 min preincubation, room temperature; read-out: COX II IC50
T2 construct: made in house; baculovirus-infected insect cells by own knowledge of the cited Barnett et al. 1994
T2 sequence (P35354 18-604): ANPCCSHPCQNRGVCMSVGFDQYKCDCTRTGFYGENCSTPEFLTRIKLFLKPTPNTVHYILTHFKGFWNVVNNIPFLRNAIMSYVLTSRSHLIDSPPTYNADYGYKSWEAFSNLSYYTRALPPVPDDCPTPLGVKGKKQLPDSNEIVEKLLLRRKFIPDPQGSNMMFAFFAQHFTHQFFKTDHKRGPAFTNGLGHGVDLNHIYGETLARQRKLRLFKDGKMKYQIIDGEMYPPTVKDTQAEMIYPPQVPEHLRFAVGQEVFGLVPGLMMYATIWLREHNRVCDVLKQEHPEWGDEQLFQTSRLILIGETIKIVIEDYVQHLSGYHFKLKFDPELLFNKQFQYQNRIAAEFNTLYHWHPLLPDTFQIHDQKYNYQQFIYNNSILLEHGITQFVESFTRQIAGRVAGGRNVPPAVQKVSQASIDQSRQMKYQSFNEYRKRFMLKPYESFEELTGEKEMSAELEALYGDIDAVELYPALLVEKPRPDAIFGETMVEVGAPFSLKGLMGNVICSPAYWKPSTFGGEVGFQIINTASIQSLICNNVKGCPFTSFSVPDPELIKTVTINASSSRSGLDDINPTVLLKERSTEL
Protocol: as §1, §2

[3] = test system: air pouch PGE2 formation; experiment: Inhibition of eicosanoid (PGE2) synthesis in vivo: carrageenan air-pouch model in rats; design: species or system rat; settings: oral, male rats
Protocol: In this assay, an air-pouch is created in the rat and the PGE2 levels in the air-pouch exudate are measured by enzyme immunoassay. Briefly, male rats were anesthetized using a 60:40 CO2 :O2 mixture and subsequently injected subcutaneously with 20 ml of sterilized air, under aseptic conditions, in the proximal area of the dorsum. This injection of sterile air causes the creation of a subcutaneous "air pouch". The next day, a further 10 ml of sterile air was injected into the previously formed pouch using the same technique. […] Control rats received vehicle alone. After 30 minutes, 5 ml of a 0.5% solution of carrageenan (Sigma, Lambda Type IV) was injected into the air pouch. The rats were euthanized 3 or 6 h after the compound administration. […] The total exudate volume was recorded, and the samples were analyzed for PGE2 and 6-keto PGF1 by ELISA (Titerzyme®, PerSeptive Diagnostics) and TxB2 by radioimmuno assay (New England Nuclear Research, Catalog No. NEK-037), according to the manufacturer's directions.
The mean concentrations of PGE2 were calculated for each group. The anti-inflammatory activity of test materials is expressed as the percent inhibition of PGE2 formation in the test group relative to the control group.

Row | Molecule | IC50 [1] | IC50 [2] | % Inhibition of air pouch PGE2 formation ([3]; 30 mg/Kg, 6 hr) | % Inhibition of air pouch PGE2 formation ([3]; 10 mg/Kg, 3 hr)
1 | CSc1ccc(C(=O)c2c(C)cc(Cc3ccc(NS(=O)(=O)N(C)C)cn3)n2C)cc1 [compound 296, 1-{2-[5-(4-Methylthiobenzoyl)-1,4-dimethyl-1H-pyrrol-2-ylmethyl]pyridin-5-yl}-3,3-di-methylsulfamide] | 0.21 µM | 0.4 µM | – | –
2 | Cc1cc(Cc2ccc(NC(=O)NCCCl)cn2)n(C)c1C(=O)c1ccc(Cl)cc1 [compound 310, 1-{2-[5-(4-Chlorobenzoyl)-1,4-dimethyl-1H-pyrrol-2-ylmethyl]pyridin-5-yl}-3-(2-chloro-ethyl)urea] | 142 µM | 9.2 µM | – | –
3 | CCNC(=S)Nc1ccc(Cc2cc(C)c(C(=O)c3ccc(Cl)cc3)n2C)nc1 [compound 314, 1-{2-[5-(4-Chlorobenzoyl)-1,4-dimethyl-1H-pyrrol-2-ylmethyl]pyridin-5-yl}-3-ethyl-2-thiourea] | 65 µM | 0.56 µM | – | –
4 | Cc1cc(Cc2ccc(NC(=S)Nc3ccccc3)cn2)n(C)c1C(=O)c1ccc(Cl)cc1 [compound 316, 1-{2-[5-(4-Chlorobenzoyl)-1,4-dimethyl-1H-pyrrol-2-ylmethyl]pyridin-5-yl}-3-phenyl-2-thiourea] | 360 µM | 0.2 µM | – | –
5 | CC(=O)Nc1ccc(Cc2cc(C)c(C(=O)c3ccc(Cl)cc3)n2C)nc1 [compound 329, N-{2-[5-(4-Chlorobenzoyl)-1,4-dimethyl-1H-pyrrol-2-ylmethyl]pyridin-5-yl}acetamide] | 256 µM | 43.7 µM | – | –
6 | Cc1cc(Cc2ccc(NC=O)cn2)n(C)c1C(=O)c1ccc(Cl)cc1 [compound 330, N-{2-[5-(4-Chlorobenzoyl)-1,4-dimethyl-1H-pyrrol-2-ylmethyl]pyridin-5-yl}formamide] | 61.1 µM | 30 µM | – | –
7 | Cc1cc(Cc2ccc(NS(C)(=O)=O)cc2F)n(C)c1C(=O)c1cccs1 [compound 340, N-{3-Fluoro-4-[5-(2-thenoyl)-1,4-dimethyl-1H-pyrrol-2-ylmethyl]phenyl}-methanesulfonamide] | 0.02 µM | 0.06 µM | – | –
8 | N-{2-[5-(4-Methylbenzoyl)-1,4-dimethyl-1H-pyrrol-2-ylmethyl]pyridin-5-yl}- 2-(hydroxy)-ethanesulfonamide hydrochloride [compound 272] | > 1000 µM | 2.1 µM | – | –

More lines, main results first:

Row | IC50 [1] | IC50 [2] | Molecule | % Inhibition of air pouch PGE2 formation ([3]; 30 mg/Kg, 6 hr) | % Inhibition of air pouch PGE2 formation ([3]; 10 mg/Kg, 3 hr)
9 | 15 µM | 0.51 µM | CNC(=S)Nc1ccc(Cc2cc(C)c(C(=O)c3ccc(Cl)cc3)n2C)cc1 [compound 236] | 71% | –
10 | 89 µM | 0.43 µM | Cc1ccc(C(=O)c2ccc(Cc3ccc(NS(C)(=O)=O)cn3)n2C)cc1 [compound 271, N-{2-[5-(4-Methylbenzoyl)-1-methyl-1H-pyrrol-2-ylmethyl]pyridin-5-yl}methane-sulfonamide] | – | 56%
11 | 22 µM | 0.5 µM | COc1ccc(C(=O)c2c(C)cc(Cc3ncc(NS(C)(=O)=O)cc3Cl)n2C)cc1 [compound 284, N-{3-Chloro-2-[5-(4-methoxybenzoyl)-1,4-dimethyl-1H-pyrrol-2-ylmethyl]pyridin-5-yl}-methanesulfonamide] | – | 65%
12 | 113 µM | 0.64 µM | COc1ccc(C(=O)c2ccc(Cc3ccc(NS(N)(=O)=O)cn3)n2C)cc1 [compound 306, 1-{2-[5-(4-Methoxybenzoyl)-1-methyl-1H-pyrrol-2-ylmethyl]pyridin-5-yl}sulfamide] | – | –
13 | 650 µM | 8.75 µM | Cc1cc(Cc2ccc(NC(=O)N(C)C)cn2)n(C)c1C(=O)c1ccc(Cl)cc1 [compound 308, 1-{2-[5-(4-Chlorobenzoyl)-1,4-dimethyl-1H-pyrrol-2-ylmethyl]pyridin-5-yl}-3,3-di-methylurea] | – | –
14 | 18.3 µM | 0.64 µM | CSc1ccc(C(=O)c2c(C)cc(Cc3ccc(N)cn3)n2C)cc1 [compound 334, {2-[5-(4-Methylthiobenzoyl)-1,4-dimethyl-1H-pyrrol-2-ylmethyl]pyridin-5-yl}amine] | – | 44%
